Measured values reported in ChEMBL document CHEMBL1142756, “Total synthesis and antiangiogenic activity of cyclopentane analogues of fumagillol” (Bioorg Med Chem Lett, 2005).
Values after ≈ are worked out from the molar mass of the structure shown.

Tests used:
Assay type in all cases: functional, cell-based
[1] = Inhibitory concentration against Calf pulmonary artery endothelial cells (CPAE) measured for endothelial cell proliferation activity; conditions: Bos taurus
[2] = test system: P388; assay: Inhibitory concentration against Murine leukemia P388 measured for endothelial cell proliferation activity; conditions: Mus musculus
[3] = Inhibitory concentration against Lymphoma EC4 cells measured for endothelial cell proliferation activity; conditions: Homo sapiens

Structure (SMILES) | IC50 [1] [µg/mL] | IC50 [2] [µg/mL] | IC50 [3] [µg/mL]
CO[C@@H]1[C@H](OC(=O)NC(=O)CCl)C[C@]2(CO2)[C@H]1[C@]1(C)O[C@H]1CCC(C)C | 0.57 (≈ 1.46 µM) | ≥ 10 | 1.1 (≈ 2.82 µM)
CO[C@@H]1[C@H](OC(=O)NC(=O)CCl)C[C@]2(CO2)[C@H]1[C@@]1(C)O[C@@H]1CCC(C)C | 0.088 (≈ 0.226 µM) | ≥ 10 | 0.3 (≈ 0.769 µM)
CO[C@@H]1[C@H](OC(=O)/C=C/C=C/C=C/C=C/C(=O)O)CC[C@]2(CO2)[C@H]1[C@@]1(C)OC1CC=C(C)C (single isomer, unassigned) [FUMAGILLIN] | 0.003 (≈ 0.00654 µM) | ≥ 10 | 0.0016 (≈ 0.00349 µM)
CO[C@@H]1[C@H](OC(=O)NC(=O)CCl)CC[C@]2(CO2)[C@H]1[C@@]1(C)OC1CC=C(C)C (single isomer, unassigned) [O-CHLOROACETYLCARBAMOYLFUMAGILLOL] | 0.0002 (≈ 0.000498 µM) | ≥ 10 | 0.0038 (≈ 0.00946 µM)
